Laboratory results as given in paper PMC11013136, “Design, Synthesis, and Anti-Leukemic Evaluation of a Series of Dianilinopyrimidines by Regulating the Ras/Raf/MEK/ERK and STAT3/c-Myc Pathways” (Molecules, 2024).

Legend:
HL7702 cells = assay: MTT cytotoxicity on normal hepatic cell line HL7702; format: cell-based; conditions: Homo sapiens, L02, 48 h
Procedure: (§1) To estimate the effects of N-Phenyl-2-pyrimidinamine derivatives (Figure 1A) on HEL, K562, and Jurkat cells, we treated these cells with the compounds at different concentrations (1–20 μM) for 48 h. […] H-121 could selectively impair the proliferation of HEL and Jurkat cells. H-123 blocked the proliferation of the Jurkat cells. Those four compounds had no toxicity to the HL7702 cell line.
(§2) To validate the effects of H-120 on the viability of HEL cells, we treated the cells with the compound at different concentrations (1–20 μM) for 24 h, 48 h, and 72 h. […] However, H-120 was not cytotoxic on normal HL7702 (IC50 > 20 μM) (Figure 1B). The morphology of HEL cells treated with H-120 gradually crumpled and appeared fragmented (Figure 1E).
(§3) The logarithmically grown HEL cells were seeded in a 96-well culture plate at a density of 8000 cells per well and treated with different concentrations of H-120 (0.125 μM, 0.25 μM, 0.5 μM, and 1 μM) or 0.1% DMSO (control). After 24 h, 48 h, and 72 h treatment, the cells were added to 10 μL of MTT reagent for 4 h, and then added to 100 μL of triple cleavage fluid (SDS 10 g, isobutanol 5 mL and 10M HCl 0.1 mL, dissolved with ddH2O into 100 mL solution). After using a microscope to observe the completely dissolved crystal, the cells’ optical absorbance value was measured at 570 nm using an enzyme-labeling instrument (BioTek, Winooski, VT, United States). Inhibition rate = (OD value of DMSO group-OD value of experimental group)/OD value of DMSO group × 100%.

HEL cells [1] = assay: Annexin V-FITC/PI apoptosis detection by flow cytometry; format: cell-based; conditions: 1 μM
Description: (§4) Apoptosis plays a crucial role in impairing cancer cell viability. To determine whether the H-120 inhibiting HEL cell growth is caused by apoptosis, we applied HEL cells with different concentrations of H-120. […] To explore the mechanism of apoptosis, we used JC-1 staining to detect the effect of H-120 on mitochondrial membrane potential. […] The results confirmed that H-120 can induce HEL cell apoptosis by impairing mitochondria.
For the apoptosis detection assay, the logarithmically grown HEL cells were treated with H-120 solution (0.125 μM, 0.25 μM, 0.5 μM, and 1 μM) for 24 h, 48 h, and 72 h. Subsequently, the cells were collected and rinsed three times with pre-cooled PBS. Based on the instruction of the Annexin V-FITC apoptosis detection kit, the cells were resuspended in 50 μL of 1 × binding buffer and stained for 15 minutes. Then, the apoptosis rate was determined using flow cytometry (ACEA NovoCyte, San Diego, CA, United States). For cell cycle analysis, HEL cells were treated with the different concentrations of H-120 (0.125 μM, 0.25 μM, 0.5 μM, 1 μM) for 24 h. […] Cells were stained with 0.5 mL of PI (propidium iodide, 50 µg/mL), RNase (5 µg/mL) inhibitor, and Triton × 100 (0.5 µg/mL) for 10 min at room temperature in the dark and then analyzed by flow cytometry.

HEL cells [2] = assay: Western blotting of cell cycle, apoptosis, Ras/Raf/MEK/ERK and STAT3/c-Myc proteins; format: cell-based; conditions: Western blot
Description: (§5) Cell cycle regulation is critical for cell differentiation and proliferation. To investigate whether H-120 affects the cell cycle of HEL, we treated HEL cells with various concentrations of H-120.
To study the effect of H-120 on apoptosis proteins, we treated HEL cells with various concentrations of H-120.
To assess whether the effect of H-120 on HEL cells is involved in the inactivation of Ras/Raf/MEK/ERK/MAPK signaling pathway, we tracked this pathway bottom-up in HEL cells treated with H-120 using Western blotting.
To examine the effect of H-120 on the p-STAT3 and c-Myc, we checked the p-STAT3 and c-Myc levels in HEL cells treated with H-120. […] STAT3 acts through its phosphorylation and enters nuclear. The nuclear–cytoplasmic separation experiment was conducted.
HEL cells were collected after 24 h of H-120 treatment and washed with PBS, and the supernatant was discarded. According to the instructions of the Nuclear and Cytoplasmic Protein Extraction Kit (Beyotime Biotechnology, Shanghai, China), we added cytoplasmic protein extraction reagent A equipped with PMSF (phenylmethanesulfonyl fluoride) and used vigorous vortexing at 2500 rpm for 5 s to suspend and disperse the cell precipitation entirely. After 15 min of an ice bath, we added cytoplasmic protein extraction reagent B. The sample was vigorously vortexed at 2500 rpm for 5 s, then centrifuged at 4 °C for 5 min at 12,000× g, and the supernatant was extracted to leave a precipitate. The supernatant was the cytoplasmic protein. For the precipitate, the […] protein extraction reagent equipped with PMSF was added immediately, mixed, and then placed on ice. The highest-speed vigorous vortex was performed for 20 s every 2 min for 30 min, followed by centrifugation at 12,000× g at 4 °C for 10 min. Finally, the supernatant was taken as the nuclear protein.
HEL cells after drug action were collected, added to and mixed with cell lysis buffer, and […] on ice for one hour before protein concentration was detected using a BCA (bicinchoninic acid) kit. Proteins (50 μg) were separated by sodium dodecyl sulfate-polyacrylamide gel electrophoresis and transferred to a PVDF (polyvinylidene fluoride) membrane ([…], Bio-Rad, Hercules, CA, USA) via wet transfer. Then, 5% bovine serum albumin closed the membrane for 1 h, and the membrane was washed three times with TBS (20 mM Tris-HCl) for 5 min each time. Membranes were allowed to incubate with the primary antibody overnight at 4 °C. The anti-rabbit antibody secondary antibody was incubated at room temperature for 2 h. Then, the membrane was washed with 1× TBST (20 mM Tris-HCl, 0.1% Tween 20) for 15 min. After washing, the fetal membrane was scanned with an infrared imaging scanner. β-actin was used as a loading control.

HEL cells [3] = assay: Hoechst 33258 staining (DNA damage); format: cell-based; conditions: 0.125-1 μM, 24 h
Procedure: as §5
After subjecting HEL cells to H-120 solution (0.125 μM, 0.25 μM, 0.5 μM, 1μM) for 24 h, the cells were collected, resuspended, and washed with pre-cooled PBS. Subsequently, the cells were fixed, stained, and washed according to the instructions provided by the Apoptosis-Hoechst 33258 Staining Kit. To prevent fluorescence interference, an appropriate volume of anti-fluorescence quenching sealing solution was added to the cells. The cells were then placed on a spare slide, covered with a coverslip, and immediately observed and photographed using a Nikonfluorescence microscope.

HEL cells [4] = assay: JC-1 mitochondrial membrane potential assay; format: cell-based; conditions: 0.125-1 μM, 48 h, flow cytometry
Procedure: as §4
Cells (2 × 10^5) were seeded in a 2 mL medium with different concentrations of H-120 (0.125 μM, 0.25 μM, 0.5 μM, 1 μM). After being treated with H-120 for 48 h, the cells were preincubated with JC-1 working solution for 20 min at 37 °C, 5% CO2. After incubation, the dye was removed, and the cells were washed two times with JC-1 [48].

Jurkat cells = assay: MTT cell viability assay, Jurkat cells; format: cell-based; conditions: Homo sapiens, 48 h
Procedure: as §1, §3

HEL cells [5] = assay: MTT cell viability assay, HEL cells; format: cell-based; conditions: for IC50: Homo sapiens, HEL, 48 h
Procedure: as §1, §2, §3
The logarithmically grown HEL cells were collected and planted in 96-well plates at a density of 8000 cells per well. After the cell state was stabilized, HEL cells were treated with H-120 solution (0.125 μM, 0.25 μM, 0.5 μM, 1 μM), and then the OD value was measured at 570 nm in different periods of time. The growth curves were plotted.

K562 cells = assay: MTT cell viability assay, K562 cells; format: cell-based; conditions: Homo sapiens, 48 h
Procedure: as §1, §3

HEL cells [6] = assay: Cell cycle analysis (PI, flow cytometry); format: cell-based; conditions: 0.125-1 μM, 24 h
Procedure: as §5
For the apoptosis detection assay, the logarithmically grown HEL cells were treated with H-120 solution (0.125 μM, 0.25 μM, 0.5 μM, and 1 μM) for 24 h, 48 h, and 72 h. Subsequently, the cells were collected and rinsed three times with pre-cooled PBS. Based on the instruction of the Annexin V-FITC apoptosis detection kit, the cells were resuspended in 50 μL of 1 × binding buffer and stained for 15 minutes. Then, the apoptosis rate was determined using flow cytometry (ACEA NovoCyte, San Diego, CA, United States). For cell cycle analysis, HEL cells were treated with the different concentrations of H-120 (0.125 μM, 0.25 μM, 0.5 μM, 1 μM) for 24 h. Cells were collected, fixed with pre-cooled 70% ethanol, and kept at 4 °C for 4 h before being transferred to −20 °C overnight. Cells were stained with 0.5 mL of PI (propidium iodide, 50 µg/mL), RNase (5 µg/mL) inhibitor, and Triton × 100 (0.5 µg/mL) for 10 min at room temperature in the dark and then analyzed by flow cytometry.

[7] = system: F-MuLV-induced leukemia mice; assay: F-MuLV-induced erythroleukemia mice; format: in vivo, BALB/c mice; conditions: for number of leukemic cells in the spleens (H&E staining): VCR 0.25 mg/kg, H-120 1-4 mg/kg intraperitoneally
Description: We used the F-MuLV-induced leukemia mice to determine the anti-leukemia activity of H-120. […] The effect of H-120 treatment is similar to that in the vincristine (VCR) treatment group (Figure 6A,C). […] The CD71 and Ter119 have been broadly used to reflect mice’s dynamic maturation of erythrocytes. We tested CD71 and Ter119 expression in spleen cells and bone marrow cells by using flow cytometry.
The NIH3T3 cells expressing the F-MuLV clone 57 vector were donated by Professor Ben-David Yaacov, Key Laboratory of Natural Product Chemistry, Chinese Academy of Sciences, Guizhou Province. In order to induce leukemia, BALB/c mice (male and females; Tongxin, Chongqing, China), aged one day, were administered a solitary intraperitoneal injection of F-MuLV. Then, infected neonates were weaned at 4 weeks and randomly divided into 6 groups: normal group (NC), model group (M), positive control group (VCR: 0.25 mg/kg), H-120 low dose group (H-120-L: 1 mg/kg), H-120 medium dose group (H-120-M: 2 mg/kg), and H-120 high dose group (H-120-H: 4 mg/kg). After 5 weeks of virus infection, mice were treated with H-120 intraperitoneally every other day for 3 weeks. The normal and model groups were given saline, and the control group was given vincristine intraperitoneally. Under the supervision of experienced staff, the leukemia mice were sacrificed humanely by cervical dislocation. Serum biochemical indexes of the mice were detected. The spleens of the mice were removed. A portion of the spleen was fixed in formaldehyde for 24 h, and paraffin was embedded and sliced. The effects of H-120 on the normal physiological structure of the spleen were observed by H&E staining. Then, part of the spleen tissue was ground and prepared into a single-cell suspension, which was stained with CD71, Ter119, CD4, CD8a, and B220 antibodies for 30 min, respectively. The expression of markers on the spleen cell surfaces of mice was analyzed by flow cytometry.

Structure (SMILES)	IC50 (HL7702 cells) [µM]	IC50 (Jurkat cells) [µM]	IC50 (HEL cells [5]) [µM]	IC50 (K562 cells) [µM]	number of leukemic cells in the spleens (H&E staining) ([7]; vs model group)	further results
C#CC(=O)Nc1ccc(Nc2ncc(C)c(Nc3sccc3C(=O)NC)n2)cc1 [H-120, 2-[5-Methyl-2-(4-propynoylamino-phenylamino)-pyrimidin-4-ylamino]-thiophene-3-carboxylic acid methylamide]	> 20	0.665 ± 0.02	0.148 ± 0.04	2.34 ± 0.22	decreased significantly	apoptosis rate of HEL cells (HEL cells [1]; 48 h): 14.28%; apoptosis rate of HEL cells (HEL cells [1]; 72 h): 36.45%; Bad, cleaved caspase-9, cleaved caspase-3 and cleaved PARP expression (HEL cells [2]): up-regulated considerably; Bcl-2 and Bcl-xL expression (HEL cells [2]): significantly down-regulated; expressions of Ras, phosphorylated Raf, MEK and ERK (HEL cells [2]): significantly reduce; levels of cell cycle proteins p-CDC25C and CyclinB1 (HEL cells [2]; dose-dependent): decreased; p53 level (HEL cells [2]; dose-dependent): up-regulated; p-STAT3 and c-Myc levels (HEL cells [2]; dose-dependent): significantly down-regulated; DNA damage (Hoechst staining) (HEL cells [3]): caused DNA damage in a dose-dependent manner; relative value of the JC-1 monomer (HEL cells [4]): significantly increased; HEL cell proliferation (HEL cells [5]; 24 h, 48 h and 72 h): prevented the HEL cell proliferation in a dose- and time-dependent manner; proportion of the G2/M phase in HEL cells (HEL cells [6]): increased; effects on renal and cardiac functions (URA, CREA, UA, CK-MB) ([7]; erythroleukemia mice): no effects; proportions of CD4, CD8a and B220 cells in spleen ([7]; flow cytometry): increased significantly; mature erythrocytes CD71-Ter119+ in spleen cells and bone marrow cells ([7]; flow cytometry, vs model group): significantly increased; levels of liver index, ALT and AST ([7]; vs model group): significantly lower; spleen weight ([7]; vs model mice, H-120 1, 2, 4 mg/kg intraperitoneally every other day for 3 weeks): significantly declined
C=CC(=O)Nc1ccc(Nc2ncc(C)c(Nc3sccc3C(=O)NC)n2)cc1 [H-121, 2-((2-((4-Acrylamidophenyl)amino)-5-methylpyrimidin-4-yl)amino)-N-methylthiophene-3-carboxamide]	> 20	10.4 ± 0.238	8.78 ± 0.45	> 20		
CNC(=O)c1ccccc1Nc1nc(Nc2ccc(Nc3c(NC45CC6CC(CC(C6)C4)C5)c(=O)c3=O)cc2)ncc1C(F)(F)F [H-122, 2-((2-((4-((2-(((1R,3R,5S)-Adamantan-1-yl)amino)-3,4-dioxocyclobut-1-en-1-yl)amino)phenyl)amino)-5-(trifluoromethyl)pyrimidin-4-yl)amino)-N-methylbenzamide]	> 20	1.63 ± 0.28	11.5 ± 0.53	16.3 ± 1.11		
CNC(=O)c1ccsc1Nc1nc(Nc2ccc(Nc3c(NC45CC6CC(CC(C6)C4)C5)c(=O)c3=O)cc2)ncc1C(F)(F)F [H-123, 2-((2-((4-((2-(((1R,3R,5S)-Adamantan-1-yl)amino)-3,4-dioxocyclobut-1-en-1-yl)amino)phenyl)amino)-5-(trifluoromethyl)pyrimidin-4-yl)amino)-N-methylthiophene-3-carboxamide]	> 20	5.2 ± 1.17	> 20	> 20		
CC[C@]1(O)C[C@H]2CN(CCc3c([nH]c4ccccc34)[C@@](C(=O)OC)(c3cc4c(cc3OC)N(C=O)[C@H]3[C@@](O)(C(=O)OC)[C@H](OC(C)=O)[C@]5(CC)C=CCN6CC[C@]43[C@@H]65)C2)C1 [VCR, Vincristine, reference compound]					decreased significantly	
